Laboratory results as given in PMC7305224, “Mutually stabilizing interactions between proto-peptides and RNA” (Nature Communications, 2020).
Non-standard residues stand in square brackets, D forms with d. Residues, ends and D or L forms follow the SMILES beside them. Dab = NCC[C@H](N)C(=O)O

What follows are compounds tested on RNA duplex 1 (assay: CD analysis of RNA duplex with peptides/depsipeptides). Conditions: RNA duplex 5 µM, peptide/depsipeptide 0–10 µM, MES-TEA buffer (60 mM).
Assay type: binding
Source text: The gel was cropped at the edges for clarity. […] […] Red and blue colors of the filled circles correspond to curves of the same color in panel (c). […] […] Scans were from 320 nm to 220 nm with a bandwidth of 5 nm, data pitch of 0.2 nm, and scan rate of 50 nm/min with three accumulations. […] Data were collected in independent triplicates and the data were averaged. Finally, data were smoothed and plotted using Matlab.

Structure (SMILES) | changes in CD spectra of the RNA duplex upon addition
CC(=O)N[C@@H](Cc1ccc(O)cc1)C(=O)NCC(=O)N[C@@H](C)C(=O)N[C@@H](CCN)C(=O)N[C@@H](CCCCN)C(=O)N[C@@H](C)C(=O)N[C@@H](CCN)C(=O)N[C@@H](CCCCN)C(=O)N[C@@H](C)C(=O)N[C@@H](CCN)C(=O)N[C@@H](CCCCN)C(=O)N[C@@H](C)C(=O)N[C@@H](CCN)C(=O)N[C@@H](CCCCN)C(=O)N[C@@H](C)C(=O)N[C@@H](CCN)C(=O)N[C@@H](CCCCN)C(N)=O (Ac-YGA[Dab]KA[Dab]KA[Dab]KA[Dab]KA[Dab]K-NH2) | physical association
CC(=O)N[C@@H](Cc1ccc(O)cc1)C(=O)NCC(=O)N[C@@H](C)C(=O)N[C@@H](CCN)C(=O)N[C@@H](CCCCN)C(=O)N[C@@H](C)C(=O)N[C@@H](CCN)C(=O)N[C@@H](CCCCN)C(N)=O [Ac-Tyr-Gly-Ala-Dab-Lys-Ala-Dab-Lys-NH2] (Ac-YGA[Dab]KA[Dab]K-NH2) | physical association
CC(=O)N[C@@H](Cc1ccc(O)cc1)C(=O)NCC(=O)N[C@@H](C)C(=O)N[C@@H](CCN)C(=O)N[C@@H](CCCCN)C(N)=O [Ac-Tyr-Gly-Ala-Dab-Lys-NH2] (Ac-YGA[Dab]K-NH2) | physical association
